Here are results for 22 compounds from patent US10065956B2, “Ethynyl derivatives” (Hoffmann-La Roche Inc., priority 2015, dated 2018).

The target in this experiment is T1, human mGlu4 receptor (Homo sapiens, UniProt Q14833).
T1 construct: expressed in transfected cells; host or cells: monoclonal HEK-293 cell line, stably transfected
As to the kind of experiment: Ca2+ mobilization in vitro assay on recombinant human mGlu4 expressed in HEK293 cells (PAM, L-AP4 at EC20). The experiment is classed as cell-based. To be noted: for Emax: HEK293, maximal response in % of the maximal stimulatory effect obtained with saturating concentrations of L-AP4, read-out: Eff. (%); for EC50: HEK293 cells expressing human mGlu4, L-AP4 added at EC20. The source says: FIG. 1: Illustration of the experimental outline for mGlu4 PAM Ca2+ mobilization screening assay and the determination of EC50 and % Emax values.
Determination of EC50 Values Using a Ca2+ Mobilization In Vitro Assay on Recombinant Human mGlu4 Expressed in HEK293 Cells:
A monoclonal HEK-293 cell line stably transfected with a cDNA encoding for the human mGlu4 receptor was generated; for the work with mGlu4 Positive Allosteric Modulators (PAMs), a cell line with low receptor expression levels and low constitutive receptor activity was selected to allow the differentiation of agonistic versus PAM activity. Cells were cultured according to standard protocols (Freshney, 2000) in Dulbecco's Modified Eagle Medium with high glucose supplemented with 1 mM glutamine, 10% (vol/vol) heat-inactivated bovine calf serum, Penicillin/Streptomycin, 50 μg/ml hygromycin and 15 μg/ml blasticidin (all cell culture reagents and antibiotics from Invitrogen, Basel, Switzerland).
About 24 hrs before an experiment, 5×10^4 cells/well were seeded in poly-D-lysine coated, black/clear-bottomed 96-well plates. The cells were loaded with 2.5 μM Fluo-4AM in loading buffer (1×HBSS, 20 mM HEPES) for 1 hr at 37° C. and washed five times with loading buffer. The cells were transferred into a Functional Drug Screening System 7000 (Hamamatsu, Paris, France), and 11 half logarithmic serial dilutions of test compound at 37° C. were added and the cells were incubated for 10-30 min. with on-line recording of fluorescence. Following this pre-incubation step, the agonist (2S)-2-amino-4-phosphonobutanoic acid (L-AP4) was added to the cells at a concentration corresponding to EC20 with on-line recording of fluorescence; in order to account for day-to-day variations in the responsiveness of cells, the EC20 of L-AP4 was determined immediately ahead of each experiment by recording of a full dose-response curve of L-AP4. Responses were measured as peak increase in fluorescence minus basal (i.e. fluorescence without addition of L-AP4), normalized to the maximal stimulatory effect obtained with saturating concentrations of L-AP4. Graphs were plotted with the % maximal stimulatory using XLfit, a curve fitting program that iteratively plots the data using Levenburg Marquardt algorithm. The single site competition analysis equation used was y=A+((B−A)/(1+((x/C)D))), where y is the % maximal stimulatory effect, A is the minimum y, B is the maximum y, C is the EC50, x is the log 10 of the concentration of the competing compound and D is the slope of the curve (the Hill Coefficient). From these curves the EC50 (drug concentration at which 50% of the maximal receptor activation was achieved), the Hill coefficient as well as the maximal response in % of the maximal stimulatory effect obtained with saturating concentrations of L-AP4 were calculated (see FIG. 1). […] A depression of the signal observed after addition of the EC20 concentration of L-AP4 was indicative of an inhibitory activity of the test compound.
For orientation: Calcium assays in cells follow changes in intracellular calcium, usually with a dye or a luminescent sensor.

A word on the EC50: it is the midpoint of the concentration-response curve.

T1 sequence (Q14833 33-912): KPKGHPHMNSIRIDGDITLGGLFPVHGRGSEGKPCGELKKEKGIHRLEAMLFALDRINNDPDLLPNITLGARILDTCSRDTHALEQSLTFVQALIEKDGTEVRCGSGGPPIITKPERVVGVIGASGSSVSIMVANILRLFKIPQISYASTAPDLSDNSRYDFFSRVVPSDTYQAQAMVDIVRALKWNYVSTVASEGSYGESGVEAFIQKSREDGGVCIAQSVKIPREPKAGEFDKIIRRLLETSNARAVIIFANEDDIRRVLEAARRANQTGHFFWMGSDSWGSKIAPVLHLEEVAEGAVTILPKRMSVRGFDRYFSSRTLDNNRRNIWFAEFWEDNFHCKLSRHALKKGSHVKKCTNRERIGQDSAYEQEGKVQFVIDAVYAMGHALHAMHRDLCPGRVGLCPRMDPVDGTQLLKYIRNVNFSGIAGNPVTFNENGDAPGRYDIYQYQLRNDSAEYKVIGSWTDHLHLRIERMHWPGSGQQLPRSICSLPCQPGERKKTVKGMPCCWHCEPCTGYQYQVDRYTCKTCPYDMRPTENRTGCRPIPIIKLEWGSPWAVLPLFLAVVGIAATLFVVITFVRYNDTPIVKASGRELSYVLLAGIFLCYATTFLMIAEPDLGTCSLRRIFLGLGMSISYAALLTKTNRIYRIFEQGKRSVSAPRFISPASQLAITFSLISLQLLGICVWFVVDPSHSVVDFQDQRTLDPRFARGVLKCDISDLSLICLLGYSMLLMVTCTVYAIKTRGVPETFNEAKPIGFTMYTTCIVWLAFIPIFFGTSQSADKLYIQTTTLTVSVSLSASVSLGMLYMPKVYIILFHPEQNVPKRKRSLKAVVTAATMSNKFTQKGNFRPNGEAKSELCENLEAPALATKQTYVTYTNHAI

For `CN1C(=O)N(c2c(F)cc(C#Cc3ccccc3)cc2F)C(=O)C[C@@]1(C)c1ccn(C)n1` [Example 26, (6S)-3-[2,6-Difluoro-4-(2-phenylethynyl)phenyl]-1,6-dimethyl-6-(1-methylpyrazol-3-yl)hexahydropyrimidine-2,4-dione], the Emax came out at 146% and the EC50 was 69 nM.
In the case of `CN1C(=O)N(c2c(F)cc(C#Cc3ccccc3)cc2F)C(=O)C[C@@]1(C)c1ccn(CCO)n1` [Example 46, (S)-3-(2,6-Difluoro-4-(phenylethynyl)phenyl)-6-(1-(2-hydroxyethyl)-1H-pyrazol-3-yl)-1,6-dimethyldihydropyrimidine-2,4(1H,3H)-dione], the Emax stood at 156% and the EC50 came out at 97 nM.
For `COCCCn1cc([C@]2(C)CC(=O)N(c3c(F)cc(C#Cc4ccccc4)cc3F)C(=O)N2C)cn1` [Example 21, (6S)-3-[2,6-Difluoro-4-(2-phenylethynyl)phenyl]-6-[1-(3-methoxypropyl)pyrazol-4-yl]-1,6-dimethyl-hexahydropyrimidine-2,4-dione], the Emax amounted to 136% and the EC50 came out at 70 nM.
With `CCn1ccc([C@]2(C)CC(=O)N(c3c(F)cc(C#Cc4ccccc4)cc3F)C(=O)N2C)n1` [Example 28, (6S)-3-[2,6-Difluoro-4-(2-phenylethynyl)phenyl]-6-(1-ethylpyrazol-3-yl)-1,6-dimethyl-hexahydropyrimidine-2,4-dione], the Emax came out at 139% and the EC50 stood at 96 nM.
The like results for `CN1C(=O)N(c2c(F)cc(C#Cc3ccc(F)cc3F)cc2F)C(=O)C[C@@]1(C)c1cnn(C)c1` [Example 58, (6S)-3-[4-[2-(2,4-Difluorophenyl)ethynyl]-2,6-difluoro-phenyl]-1,6-dimethyl-6-(1-methylpyrazol-4-yl)hexahydropyrimidine-2,4-dione] were, in that order, 139% and 80 nM.
The like results for `COCCn1ccc([C@]2(C)CC(=O)N(c3c(F)cc(C#Cc4ccccc4)cc3F)C(=O)N2C)n1` [Example 30, (6S)-3-[2,6-Difluoro-4-(2-phenylethynyl)phenyl]-6-[1-(2-methoxyethyl)pyrazol-3-yl]-1,6-dimethyl-hexahydropyrimidine-2,4-dione] were, in that order, 143% and 59 nM.
In the same order, the values of `CN1C(=O)N(c2c(F)cc(C#Cc3cc(F)ccc3F)cc2F)C(=O)C[C@@]1(C)c1cnn(C)c1` [Example 48, (6S)-3-[4-[2-(2,5-Difluorophenyl)ethynyl]-2,6-difluoro-phenyl]-1,6-dimethyl-6-(1-methylpyrazol-4-yl)hexahydropyrimidine-2,4-dione] are 140% and 79 nM.
`CN1C(=O)N(c2c(F)cc(C#Cc3ccccc3)cc2F)C(=O)C[C@@]1(C)c1ncnn1C` [Example 4, (6S)-3-[2,6-Difluoro-4-(2-phenylethynyl)phenyl]-1,6-dimethyl-6-(2-methyl-1,2,4-triazol-3-yl)hexahydropyrimidine-2,4-dione]: the Emax was 95% and the EC50 worked out at 136 nM.
With `COCCCn1ccc([C@]2(C)CC(=O)N(c3c(F)cc(C#Cc4ccccc4)cc3F)C(=O)N2C)n1` [Example 31, (6S)-3-[2,6-Difluoro-4-(2-phenylethynyl)phenyl]-6-[1-(3-methoxypropyl)pyrazol-3-yl]-1,6-dimethyl-hexahydropyrimidine-2,4-dione], the Emax was 117% and the EC50 came out at 23 nM.
In the same order, the values of `CN1C(=O)N(c2c(F)cc(C#Cc3ccccc3)cc2F)C(=O)C[C@@]1(C)c1cncs1` [Example 42, (6S)-3-[2,6-Difluoro-4-(2-phenylethynyl)phenyl]-1,6-dimethyl-6-thiazol-5-yl-hexahydropyrimidine-2,4-dione] are 135% and 86 nM.
The like results for `CN1C(=O)N(c2c(F)cc(C#Cc3cccc(F)c3F)cc2F)C(=O)C[C@@]1(C)c1cnn(C)c1` [Example 57, (6S)-3-[4-[2-(2,3-Difluorophenyl)ethynyl]-2,6-difluoro-phenyl]-1,6-dimethyl-6-(1-methylpyrazol-4-yl)hexahydropyrimidine-2,4-dione] were, in that order, 143% and 97 nM.
In the same order, the values of `CN1C(=O)N(c2c(F)cc(C#Cc3ccccc3)cc2F)C(=O)C[C@@]1(C)c1cncn1C` [Example 11, (6S)-3-[2,6-Difluoro-4-(2-phenylethynyl)phenyl]-1,6-dimethyl-6-(3-methylimidazol-4-yl)hexahydropyrimidine-2,4-dione] are 91% and 59 nM.
For the compound `Cc1nc(C2(C)CC(=O)N(c3c(F)cc(C#Cc4ccccc4)cc3F)C(=O)N2C)cs1` (racemic) [Example 3, (6RS)-3-[2,6-Difluoro-4-(2-phenylethynyl)phenyl]-1,6-dimethyl-6-(2-methylthiazol-4-yl)hexahydropyrimidine-2,4-dione], the Emax was 138% and the EC50 was 94 nM.
The like results for `CC[C@@]1(c2cn[nH]c2)CC(=O)N(c2c(F)cc(C#Cc3ccccc3)cc2F)C(=O)N1C` [Example 45, (6S)-3-[2,6-Difluoro-4-(2-phenylethynyl)phenyl]-6-ethyl-1-methyl-6-(1H-pyrazol-4-yl)hexahydropyrimidine-2,4-dione] were, in that order, 126% and 39 nM.
For `CN1C(=O)N(c2c(F)cc(C#Cc3cccc(F)c3)cc2F)C(=O)C[C@@]1(C)c1cnn(C)c1` [Example 47, (6S)-3-[2,6-Difluoro-4-[2-(3-fluorophenyl)ethynyl]phenyl]-1,6-dimethyl-6-(1-methylpyrazol-4-yl)hexahydropyrimidine-2,4-dione], the Emax was 136% and the EC50 turned out to be 71 nM.
Turning to `CN1C(=O)N(c2c(F)cc(C#Cc3ccccc3)cc2F)C(=O)C[C@@]1(C)c1cnn(C2CCOC2)c1` (mixture of isomers) [Example 62, (6S)-3-[2,6-Difluoro-4-(2-phenylethynyl)phenyl]-1,6-dimethyl-6-[1-[(3RS)-tetrahydrofuran-3-yl]pyrazol-4-yl]hexahydropyrimidine-2,4-dione], the Emax was determined as 128% and the EC50 worked out at 71 nM.
As for `CN1C(=O)N(c2c(F)cc(C#Cc3ccccc3)cc2F)C(=O)C[C@@]1(C)c1cnn(C)c1` [Example 6, (6S)-3-[2,6-Difluoro-4-(2-phenylethynyl)phenyl]-1,6-dimethyl-6-(1-methylpyrazol-4-yl)hexahydropyrimidine-2,4-dione], the Emax amounted to 98% and the EC50 turned out to be 36 nM.
For the compound `CC(C)n1cc([C@]2(C)CC(=O)N(c3c(F)cc(C#Cc4ccccc4)cc3F)C(=O)N2C)cn1` [Example 19, (6S)-3-[2,6-Difluoro-4-(2-phenylethynyl)phenyl]-6-(1-isopropylpyrazol-4-yl)-1,6-dimethyl-hexahydropyrimidine-2,4-dione], the Emax came to 139% and the EC50 amounted to 36 nM.
The like results for `CN1C(=O)N(c2c(F)cc(C#Cc3ccccc3)cc2F)C(=O)C[C@@]1(C)c1ccno1` [Example 41, (6S)-3-[2,6-Difluoro-4-(2-phenylethynyl)phenyl]-6-isoxazol-5-yl-1,6-dimethyl-hexahydropyrimidine-2,4-dione] were, in that order, 165% and 123 nM.
The like results for `CN1C(=O)N(c2c(F)cc(C#Cc3ccccc3)cc2F)C(=O)C[C@@]1(C)c1cn(C)cn1` [Example 2, (6S)-3-[2,6-Difluoro-4-(2-phenylethynyl)phenyl]-1,6-dimethyl-6-(1-methylimidazol-4-yl)hexahydropyrimidine-2,4-dione] were, in that order, 109% and 121 nM.
In the same order, the values of `CN1C(=O)N(c2c(F)cc(C#Cc3ccccc3)cc2F)C(=O)C[C@@]1(C)c1cnn(CC2COC2)c1` [Example 61, (6S)-3-[2,6-Difluoro-4-(2-phenylethynyl)phenyl]-1,6-dimethyl-6-[1-(oxetan-3-ylmethyl)pyrazol-4-yl]hexahydropyrimidine-2,4-dione] are 110% and 63 nM.
Regarding `CN1C(=O)N(c2c(F)cc(C#Cc3ccccc3)cc2F)C(=O)C[C@@]1(C)c1ccsn1` [Example 38, (6S)-3-[2,6-Difluoro-4-(2-phenylethynyl)phenyl]-6-isothiazol-3-yl-1,6-dimethyl-hexahydropyrimidine-2,4-dione], the Emax was found to be 152% and the EC50 worked out at 39 nM.
